Laboratory results from ChEMBL document CHEMBL1201862, “PubChem BioAssay data set” (2004).
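Five concentrations, 48 hours, 96-well plates. GI50 is the concentration that inhibits growth by half.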 Calls of active or inactive are those of the source. Cut-off read from the data, not from the text of the source: active = GI50 up to about 1.1 µM and inactive = higher.

Columns and labels:
Assay in all cases: NCI-60 cell line screen, 48 h
UO-31 = test system: UO-31
HOP-92 = test system: HOP-92
LOX IMVI = test system: LOX IMVI
SK-MEL-28 = test system: SK-MEL-28
KM12 = test system: KM12
A498 = test system: A498
IGROV-1 = test system: IGROV-1
HCT-15 = test system: HCT-15
OVCAR-3 = test system: OVCAR-3
SF-539 = test system: SF-539
SNB-75 = test system: SNB-75
MDA-MB-231 = test system: MDA-MB-231
SF-295 = test system: SF-295
DU-145 = test system: DU-145
T47D = test system: T47D
PC-3 = test system: PC-3
CAKI-1 = test system: CAKI-1
HOP-62 = test system: HOP-62
SF-268 = test system: SF-268
HCT-116 = test system: HCT-116
NCI-H460 = test system: NCI-H460
SK-MEL-5 = test system: SK-MEL-5
SN12C = test system: SN12C
UACC-62 = test system: UACC-62
NCI-H23 = test system: NCI-H23
BT-549 = test system: BT-549
MCF7 = test system: MCF7
OVCAR-8 = test system: OVCAR-8
MDA-N = test system: MDA-N
OVCAR-5 = test system: OVCAR-5
UACC-257 = test system: UACC-257
RPMI-8226 = test system: RPMI-8226
HT-29 = test system: HT-29
NCI/ADR-RES = test system: NCI/ADR-RES
M14 = test system: M14
TK-10 = test system: TK-10
SK-OV-3 = test system: SK-OV-3
786-0 = test system: 786-0
RXF 393 = test system: RXF 393
COLO 205 = test system: COLO 205
K562 = test system: K562
NCI-H226 = test system: NCI-H226
ACHN = test system: ACHN
U-251 = test system: U-251
Malme-3M = test system: Malme-3M
HL-60 = test system: HL-60
SW-620 = test system: SW-620
Hs-578T = test system: Hs-578T
NCI-H522 = test system: NCI-H522
MOLT-4 = test system: MOLT-4
A549 = test system: A549
EKVX = test system: EKVX
SK-MEL-2 = test system: SK-MEL-2
SNB-19 = test system: SNB-19
CCRF-CEM = test system: CCRF-CEM
MDA-MB-435 = test system: MDA-MB-435
OVCAR-4 = test system: OVCAR-4
HCC 2998 = test system: HCC 2998
SR = test system: SR

Measured: GI50

O=C1N/C(=N/N=C/c2c[nH]c3ccccc23)N/C1=C\c1cccs1
> 100 µM: HCT-15
inactive: UO-31 > 100 µM | HOP-92 49 µM | LOX IMVI 56.9 µM | SK-MEL-28 > 100 µM | KM12 55.8 µM | A498 16.2 µM | IGROV-1 > 100 µM | OVCAR-3 30.7 µM | SF-539 > 100 µM | SNB-75 > 100 µM | MDA-MB-231 40.4 µM | SF-295 > 100 µM | DU-145 > 100 µM | T47D > 100 µM | PC-3 16.1 µM | CAKI-1 > 100 µM | HOP-62 > 100 µM | SF-268 > 100 µM | HCT-116 53.8 µM | NCI-H460 > 100 µM | SK-MEL-5 70.3 µM | SN12C > 100 µM | UACC-62 73.3 µM | NCI-H23 > 100 µM | BT-549 > 100 µM | MCF7 41.4 µM | OVCAR-8 > 100 µM | MDA-N > 100 µM | OVCAR-5 > 100 µM | UACC-257 77.3 µM | RPMI-8226 40.4 µM | HT-29 52.2 µM | NCI/ADR-RES 55.3 µM | M14 75.3 µM | TK-10 > 100 µM | SK-OV-3 38.6 µM | 786-0 > 100 µM | RXF 393 75.3 µM | COLO 205 > 100 µM | K562 > 100 µM | NCI-H226 > 100 µM | ACHN > 100 µM | U-251 36.2 µM | Malme-3M 61.8 µM | HL-60 19.4 µM | SW-620 > 100 µM | Hs-578T > 100 µM | NCI-H522 > 100 µM | MOLT-4 > 100 µM | A549 76.6 µM | EKVX > 100 µM | SK-MEL-2 45.5 µM | SNB-19 14.8 µM | CCRF-CEM 4.44 µM | MDA-MB-435 43.3 µM | OVCAR-4 > 100 µM

Cc1cc(Nc2ccc(NS(C)(=O)=O)cc2)c2c(ccc3[nH]ccc32)n1
inactive: UO-31 > 100 µM | HOP-92 19 µM | LOX IMVI 18.5 µM | SK-MEL-28 17.7 µM | KM12 10.8 µM | A498 21.2 µM | IGROV-1 28.6 µM | OVCAR-3 13.1 µM | MDA-MB-231 16.4 µM | SF-295 22.3 µM | DU-145 18.8 µM | T47D 3.5 µM | PC-3 20.4 µM | CAKI-1 29.5 µM | HOP-62 19.4 µM | SF-268 7.24 µM | HCT-116 17.2 µM | NCI-H460 19.3 µM | SK-MEL-5 15.1 µM | SN12C 17.8 µM | UACC-62 15.7 µM | NCI-H23 20.7 µM | BT-549 21.9 µM | MCF7 7.4 µM | OVCAR-8 22.9 µM | MDA-N 17.6 µM | OVCAR-5 26.2 µM | UACC-257 17.3 µM | RPMI-8226 20.6 µM | HT-29 27.5 µM | NCI/ADR-RES > 100 µM | M14 16.6 µM | TK-10 28.6 µM | 786-0 20.4 µM | COLO 205 14.3 µM | K562 13.6 µM | NCI-H226 19.5 µM | ACHN 22.8 µM | U-251 15.1 µM | Malme-3M 12.5 µM | SW-620 21.7 µM | Hs-578T 28.6 µM | NCI-H522 9.35 µM | MOLT-4 2.77 µM | A549 33.3 µM | EKVX 36 µM | SK-MEL-2 15.9 µM | SNB-19 18.1 µM | CCRF-CEM 7.87 µM | MDA-MB-435 16.1 µM | OVCAR-4 12.4 µM
> 100 µM: HCT-15

Cc1ccccc1N/N=C1\C(=O)Nc2ccccc21
active: IGROV-1 0.0132 µM
inactive: UO-31 > 100 µM | LOX IMVI > 100 µM | SK-MEL-28 > 100 µM | KM12 > 100 µM | OVCAR-3 > 100 µM | SNB-75 > 100 µM | MDA-MB-231 > 100 µM | SF-295 > 100 µM | DU-145 > 100 µM | T47D > 100 µM | PC-3 > 100 µM | CAKI-1 > 100 µM | HOP-62 > 100 µM | SF-268 > 100 µM | HCT-116 > 100 µM | NCI-H460 > 100 µM | HCC 2998 > 100 µM | SK-MEL-5 > 100 µM | SN12C 88.9 µM | UACC-62 > 100 µM | NCI-H23 > 100 µM | BT-549 > 100 µM | MCF7 > 100 µM | OVCAR-8 > 100 µM | MDA-N > 100 µM | OVCAR-5 > 100 µM | UACC-257 > 100 µM | RPMI-8226 > 100 µM | HT-29 > 100 µM | NCI/ADR-RES > 100 µM | M14 > 100 µM | TK-10 > 100 µM | SK-OV-3 > 100 µM | 786-0 > 100 µM | RXF 393 > 100 µM | COLO 205 95.1 µM | SR > 100 µM | K562 > 100 µM | NCI-H226 41.7 µM | ACHN > 100 µM | U-251 > 100 µM | HL-60 > 100 µM | SW-620 > 100 µM | Hs-578T > 100 µM | NCI-H522 96.8 µM | MOLT-4 > 100 µM | A549 > 100 µM | EKVX > 100 µM | SK-MEL-2 > 100 µM | SNB-19 > 100 µM | CCRF-CEM > 100 µM | MDA-MB-435 > 100 µM | OVCAR-4 > 100 µM
> 100 µM: HCT-15
